This note sets out measurements from US8884030B2, “Inhibitors of Flaviviridae viruses” (priority 2010, dated 2014).

For the first test, the system named is human hepatoma Huh-7 cell line harboring a HCV replicon. Description: HCV replicon assay (inhibition of viral replication, luciferase). The format is cell-based. The settings on record: Hepatitis C virus, 72 h; 2 μM; Huh-7 HCV replicon cells, 3 days incubation; inhibition of viral replication; read-out: % inhibition at 2 μM. The procedure, abridged: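 Huh-7 replicon cells (1600/well) exposed 3 days at 37 °C to 10-point 3-fold dilutions, 0.44% DMSO. Replication measured by Dual-Glo luciferase, background from ITMN-191 wells; cytotoxicity by calcein AM. EC50/CC50 from Hill fit; % inhibition at fixed concentration derivable from fit.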
(In general: A replicon is a self-replicating genome or part of one, used to study replication in cells.)
The inhibition is the change of the read-out against control, counted positive when it falls. Take `CC1CCC(C(=O)N(c2cc(C#CC(C)(C)C)sc2C(=O)O)C2CCC(=NOCc3cccnc3)CC2)CC1` (centres unmarked) [Compound 118, 5-(3,3-Dimethylbut-1-ynyl)-3-(4-methyl-N-(4-(pyridin-3-ylmethoxyimino)cyclohexyl)cyclohexanecarboxamido)thiophene-2-carboxylic acid]: the inhibition at 2 µM is 100%.

Regarding `CC(C)(C)C#Cc1cc(N(C(=O)[C@H]2CC[C@H](C)CC2)C2CCN(C(=O)O[C@H]3CCNC3=O)CC2)c(C(=O)O)s1` [Compound 57, 4-[[2-carboxy-5-(3,3-dimethyl-but-1-ynyl)-thiophen-3-yl]-(4-methyl-cyclohexanecarbonyl)-amino]-piperidine-1-carboxylic acid 2-oxo-pyrrolidin-3-(S)-yl ester], the inhibition at 2 µM worked out at 78.2%.

On to `CC(C)(C)C#Cc1cc(N(C(=O)[C@H]2CC[C@H](C)CC2)C2CCC(NC(=O)OC3CCN(C(=O)OC(C)(C)C)CC3)CC2)c(C(=O)O)s1` (stereo partly drawn) [Compound 44, 4-{4-[[2-carboxy-5-(3,3-dimethyl-but-1-ynyl)-thiophen-3-yl]-(4-trans-methyl-cyclohexanecarbonyl)-amino]-cyclohexylcarbamoyloxy}-piperidine-1-carboxylic acid tert-butyl ester], for which the inhibition at 2 µM amounted to 100%.

As to `CC(C)(C)C#Cc1cc(N(C(=O)[C@H]2CC[C@H](C)CC2)C2CCN(C(=O)OC3CCS(=O)(=O)C3)CC2)c(C(=O)O)s1` (stereo partly drawn) [Compound 74, 4-[[2-carboxy-5-(3,3-dimethyl-but-1-ynyl)-thiophen-3-yl]-(trans-4-methyl-cyclohexanecarbonyl)-amino]-piperidine-1-carboxylic acid 1,1-dioxo-tetrahydro-1λ^6-thiophen-3-yl ester], the inhibition at 2 µM was 99.7%.

For the compound `CC(C)(C)C#Cc1cc(N(C(=O)[C@H]2CC[C@H](C)CC2)C2CCC(NC(=O)O[C@@H]3CCCNC3)CC2)c(C(=O)O)s1` (stereo partly drawn) [Compound 47, 5-(3,3-dimethyl-but-1-ynyl)-3-{(4-trans-methyl-cyclohexanecarbonyl)-[4-(piperidin-3-(R)-yloxycarbonylamino)-cyclohexyl]-amino}-thiophene-2-carboxylic acid], the inhibition at 2 µM is 99.9%.

For the compound `CC1CCC(C(=O)N(c2cc(C#CC(C)(C)C)sc2C(=O)O)N(C)C2CCN(C(=O)OC(C)(C)C)CC2)CC1` (centres unmarked) [Compound 127, 4-[N′-[2-carboxy-5-(3,3-dimethyl-but-1-ynyl)-thiophen-3-yl]-N-methyl-N′-(4-methyl-cyclohexanecarbonyl)-hydrazino]-piperidine-1-carboxylic acid tert-butyl ester], the inhibition at 2 µM worked out at 98.3%.

As for `CC(C)(C)C#Cc1cc(N(C(=O)[C@H]2CC[C@H](C)CC2)C2CCC(NC(=O)OC3CCNCC3)CC2)c(C(=O)O)s1` (stereo partly drawn) [Compound 45, 5-(3,3-dimethyl-but-1-ynyl)-3-{(4-trans-methyl-cyclohexanecarbonyl)-[4-(piperidin-4-yloxycarbonylamino)-cyclohexyl]-amino}-thiophene-2-carboxylic acid], the inhibition at 2 µM is 100%.

For the compound `CC(C)(C)C#Cc1cc(N(C(=O)[C@H]2CC[C@H](C)CC2)C2CCC(NC(=O)OC3CCS(=O)(=O)C3)CC2)c(C(=O)O)s1` (stereo partly drawn) [Compound 77, 5-(3,3-dimethyl-but-1-ynyl)-3-[[4-(1,1-dioxo-tetrahydro-1λ^6-thiophen-3-yloxycarbonylamino)-cyclohexyl]-(trans-4-methylcyclohexanecarbonyl)-amino]-thiophene-2-carboxylic acid], the inhibition at 2 µM is 99.9%.

Regarding `CC(C)(C)C#Cc1cc(N(C(=O)[C@H]2CC[C@H](C)CC2)C2CCN(C(=O)OC3(C)CCN(C(=O)OC(C)(C)C)C3)CC2)c(C(=O)O)s1` (some centres unmarked) [Compound 71], the inhibition at 2 µM worked out at 95.1%.

For `CC(C)(C)C#Cc1cc(N(C(=O)[C@H]2CC[C@H](C)CC2)[C@H]2CCN(C(=O)OC3(C)CCN(C(=O)OC(C)(C)C)C3)C2)c(C(=O)O)s1` (stereo in doubt) [Compound 67, 3-(S)-{3-[[2-Carboxy-5-(3,3-dimethyl-but-1-ynyl)-thiophene-3-yl](trans-4-methyl-cyclohexanecarbonyl)-amino]-pyrrolidine-1-carbonyloxy}-3-methyl-pyrrolidine-1-carboxylic acid tert-butyl ester], the inhibition at 2 µM came out at 99%.

For `CC1CCC(C(=O)N(c2cc(C#CC(C)(C)C)sc2C(=O)O)N(C)CCOc2cccnc2)CC1` (centres unmarked) [Compound 130, 5-(3,3-dimethyl-but-1-ynyl)-3-{N′-methyl-N-(4-methyl-cyclohexanecarbonyl)-N′-[2-(pyridin-3-yloxy)-ethyl]-hydrazino}-thiophene-2-carboxylic acid], the inhibition at 2 µM came to 98.7%.

Turning to `CC(C)(C)C#Cc1cc(N(C(=O)[C@H]2CC[C@H](C)CC2)C2CCC(=NOCn3cncn3)CC2)c(C(=O)O)s1` (some centres unmarked) [Compound 114, 3-(N-(4-((1H-1,2,4-Triazol-1-yl)methoxyimino)cyclohexyl)-4-methylcyclohexanecarboxamido)-5-(3,3-dimethylbut-1-ynyl)thiophene-2-carboxylic acid], the inhibition at 2 µM came to 100%.

Take `CC1CCC(C(=O)N(c2cc(C#CC(C)(C)C)sc2C(=O)O)N(C)[C@H]2CC[C@@H](O)CC2)CC1` (some centres unmarked) [Compound 123, 3-(2-(4-hydroxycyclohexyl)-2-methyl-1-(4-methylcyclohexanecarbonyl)hydrazinyl)-5-(3,3-dimethylbut-1-ynyl)thiophene-2-carboxylic acid]: the inhibition at 2 µM is 99.9%.

Turning to `CC(C)(C)C#Cc1cc(N(C(=O)[C@H]2CC[C@H](C)CC2)[C@H]2CCN(C(=O)O[C@H]3CNC(=O)C3)C2)c(C(=O)O)s1` [Compound 34, 3-(S)-[[2-carboxy-5-(3,3-dimethyl-but-1-ynyl)-thiophen-3-yl]-(4-trans-methyl-cyclohexanecarbonyl)-amino]-pyrrolidine-1-carboxylic acid 5-oxo-pyrrolidin-3-(R)-yl ester], the inhibition at 2 µM was 97.8%.

With `CC(C)(C)C#Cc1cc(N(C(=O)[C@H]2CC[C@H](C)CC2)C2CCN(C(=O)OC3CCNCC3)CC2)c(C(=O)O)s1` [Compound 31, 4-[[2-carboxy-5-(3,3-dimethyl-but-1-ynyl)-thiophen-3-yl]-(4-trans-methyl-cyclohexanecarbonyl)-amino]-piperidine-1-carboxylic acid piperidin-4-yl ester], the inhibition at 2 µM came to 93.1%.

Regarding `CC1CCC(C(=O)N(c2cc(C#CC(C)(C)C)sc2C(=O)O)N(C)CCOc2ccccn2)CC1` (centres unmarked) [Compound 132, 5-(3,3-dimethyl-but-1-ynyl)-3-{N′-methyl-N-(4-methyl-cyclohexanecarbonyl)-N′-[2-(pyridin-2-yloxy)-ethyl]-hydrazino}-thiophene-2-carboxylic acid], the inhibition at 2 µM was found to be 77.4%.

For the compound `CC(C)(C)C#Cc1cc(N(C(=O)[C@H]2CC[C@H](C)CC2)C2CCC(NC(=O)O[C@@H]3CCCN(C(=O)OC(C)(C)C)C3)CC2)c(C(=O)O)s1` (stereo partly drawn) [Compound 46, 3-(R)-{4-[[2-carboxy-5-(3,3-dimethyl-but-1-ynyl)-thiophen-3-yl]-(4-trans-methyl-cyclohexanecarbonyl)-amino]-cyclohexylcarbamoyloxy}-piperidine-1-carboxylic acid tert-butyl ester], the inhibition at 2 µM turned out to be 97%.

`CC(C)(C)C#Cc1cc(N(C(=O)[C@H]2CC[C@H](C)CC2)[C@H]2CCN(C(=O)OC3(C)CCNC3)C2)c(C(=O)O)s1` (stereo partly drawn) [Compound 68, 3-(S)-[[2-Carboxy-5-(3,3-dimethyl-but-1-ynyl)-thiophen-3-yl]-(trans-4-methylcyclohexanecarbonyl)-amino]-pyrrolidine-1-carbocylic-acid-3-methyl-pyrrolidin-3-yl-ester]: the inhibition at 2 µM came to 98.5%.

In the case of `CC1CCC(C(=O)N(c2cc(C#CC(C)(C)C)sc2C(=O)O)C2CCC(NN(C)c3ccc(Cl)nn3)CC2)CC1` (centres unmarked) [Compound 83, 3-[{4-[N′-(6-Chloro-pyridazin-3-yl)-N′-methyl-hydrazino]-cyclohexyl}-(4-methyl-cyclohexanecarbonyl)-amino]-5-(3,3-dimethyl-but-1-ynyl)-thiophene-2-carboxylic acid], the inhibition at 2 µM worked out at 99.9%.

For `CC(C)(C)C#Cc1cc(N(C(=O)[C@H]2CC[C@H](C)CC2)C2CCC(=NOCc3ccccn3)CC2)c(C(=O)O)s1` (stereo partly drawn) [Compound 112, 5-(3,3-Dimethyl-but-1-ynyl)-3-{(4-trans-methyl-cyclohexanecarbonyl)-[4-(pyridin-2-ylmethoxyimino)-cyclohexyl]-amino}-thiophene-2-carboxylic acid], the inhibition at 2 µM was 99.9%.

In the case of `CC(C)(C)C#Cc1cc(N(C(=O)[C@H]2CC[C@H](C)CC2)C2CCC(NC(=O)O[C@@H]3CCNC3=O)CC2)c(C(=O)O)s1` (stereo partly drawn) [Compound 50, 5-(3,3-dimethyl-but-1-ynyl)-3-{(4-trans-methyl-cyclohexanecarbonyl)-[4-(2-oxo-pyrrolidin-3-(R)-yloxycarbonylamino)-cyclohexyl]-amino}-thiophene-2-carboxylic acid], the inhibition at 2 µM was determined as 99.9%.

Take `CC1CCC(C(=O)N(c2cc(C#CC(C)(C)C)sc2C(=O)O)C2CCC(NN(C)c3ccc(O)nn3)CC2)CC1` (centres unmarked) [Compound 82, 5-(3,3-Dimethyl-but-1-ynyl)-3-[{4-[N′-(6-hydroxy-pyridazin-3-yl)-N′-methyl-hydrazino]-cyclohexyl}-(4-methyl-cyclohexanecarbonyl)-amino]-thiophene-2-carboxylic acid]: the inhibition at 2 µM is 100%.

Staying with this test, now noted: Hepatitis C virus, Huh-7, 72 h, read-out: % inhibition at 2 μM.
For the compound `CC1CCC(C(=O)N(c2cc(C#CC(C)(C)C)sc2C(=O)O)C2CCC(NN(C)C(=O)Oc3ccccn3)CC2)CC1` (centres unmarked) [Compound 218, 5-(3,3-dimethyl-but-1-ynyl)-3-((4-methyl-cyclohexanecarbonyl)-{4-[N′-methyl-N′-(pyridin-2-yloxycarbonyl)-hydrazino]-cyclohexyl}-amino)-thiophene-2-carboxylic acid], the inhibition at 2 µM came to 100%.
